Measured values as given in patent US20230021483A1, “[…] […] METHOD AND CLASSIFICATION OF PHARMACEUTICAL COMPONENTS BY USING TRANSCRIPTOMES” (National Institutes of Biomedical Innovation, Health and …, priority 2016, published 2023).

How the values were obtained:
Format in all cases: in vivo, C57BL/6 mice
spleen (SP) = assay: Whole organ transcriptome (GeneChip microarray) of spleen 6 h after adjuvant administration: sDEGs, hierarchical clustering; conditions: i.d. administration
[1] = system: inguinal lymph nodes (LN); assay: Whole organ transcriptome (GeneChip microarray) of draining inguinal lymph nodes 6 h after adjuvant administration: sDEGs, gene modules, hierarchical clustering; conditions: lymph node; on adjuvant group (cluster) in LN: key: G1 (interferon signaling); G2 (metabolism of lipids and lipoproteins); G3 (response to stress); G4 (response to wounding); G5 (phosphate-containing compound metabolic process); G6 (phagosome)
[2] = system: preferentially upregulated genes in LV, SP, LN; assay: Z-score-based differential gene expression analysis (adjuvant group- or adjuvant-associated genes, 40 module mapping, TargetMine annotation); conditions: ID, LV
In short: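 Gene groups for each organ were built from combined z-score cutoffs across adjuvants, ranging from z>1 to z>3. Scores came from fold changes standardized per gene over the whole organ data set, with the three replicate z-scores added per adjuvant; sums above 3 marked preferential expression.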

Substance: Monophosphoryl lipid A [MPLA]
- Number of gene probes with statistically significant changes (sDEGs), SP, Down (spleen (SP); fold change <0.667, p<0.01, customized PA call=1, 6 h after adjuvant): 22
- Number of gene probes with statistically significant changes (sDEGs), SP, Up (spleen (SP); fold change >1.5, p<0.01, customized PA call=1, 6 h after adjuvant): 9
- adjuvant group (cluster) in LN ([1]; hierarchical clustering): G1
- Number of gene probes with statistically significant changes (sDEGs), LN, Down ([1]; i.d. administration, fold change <0.667, p<0.01, customized PA call=1, 6 h after adjuvant): 18
- Number of gene probes with statistically significant changes (sDEGs), LN, Up ([1]; i.d. administration, fold change >1.5, p<0.01, customized PA call=1, 6 h after adjuvant): 8
- Adar 1425405_a_at (Group G1, Modules 20) ([2]; sample x1): −0.2
- Adar 1434268_at (Group G1, Modules 20) ([2]; sample x1): −0
- Ddx58 1436562_at (Group G1, Modules 20) ([2]; sample x1): −0.3
- Ddx58 1456890_at (Group G1, Modules 20) ([2]; sample x1): −0.2
- Eif2ak2 1422005_at (Group G1, Modules 20) ([2]; sample x1): −0.3
- G3bp2 1421323_a_at (Group G1, Modules 20) ([2]; sample x1): −0.3
- Gm9706///Isg15 1431591_s_at (Group G1, Modules 20) ([2]; sample x1): −0.5
- H2-T10///H2-T22///H2-T9 1449875_s_at (Group G1, Modules 20) ([2]; sample x1): −0.3
- Ifih1 1426276_at (Group G1, Modules 20) ([2]; sample x1): −0.4
- Ifit1 1450783_at (Group G1, Modules 20) ([2]; sample x1): −0.5
- Ifit3 1449025_at (Group G1, Modules 20) ([2]; sample x1): −0.5
- Irf7 1417244_a_at (Group G1, Modules 20) ([2]; sample x1): −0.4
- Irgm1 1418825_at (Group G1, Modules 20) ([2]; sample x1): −0.4
- Mndal 1426906_at (Group G1, Modules 20) ([2]; sample x1): −0.2
- Pml 1448757_at (Group G1, Modules 20) ([2]; sample x1): −0.4
- Pml 1456103_at (Group G1, Modules 20) ([2]; sample x1): −0.3
- Rnf213 1455500_at (Group G1, Modules 20) ([2]; sample x1): −0.4
- Rsad2 1436058_at (Group G1, Modules 20) ([2]; sample x1): −0.5
- Shisa5 1423986_a_at (Group G1, Modules 20) ([2]; sample x1): −0.2
- Shisa5 1437503_a_at (Group G1, Modules 20) ([2]; sample x1): −0.3
- Stat1 1450033_a_at (Group G1, Modules 20) ([2]; sample x1): −0.5
- Stat1 1450034_at (Group G1, Modules 20) ([2]; sample x1): −0.4
- Tdrd7 1426716_at (Group G1, Modules 20) ([2]; sample x1): −0.3
- Tor1aip2 1418115_s_at (Group G1, Modules 20) ([2]; sample x1): −0.4
- Tor1aip2 1418116_at (Group G1, Modules 20) ([2]; sample x1): −0
- Tor1aip2 1435526_at (Group G1, Modules 20) ([2]; sample x1): −0.2
- Trim12a 1437432_a_at (Group G1, Modules 20) ([2]; sample x1): −0.4
- Uba7 1426970_a_at (Group G1, Modules 20) ([2]; sample x1): −0.1
- Adar 1425405_a_at (Group G1, Modules 20) ([2]; sample x2): −0.4
- Adar 1434268_at (Group G1, Modules 20) ([2]; sample x2): −0.3
- Ddx58 1436562_at (Group G1, Modules 20) ([2]; sample x2): −0.4
- Ddx58 1456890_at (Group G1, Modules 20) ([2]; sample x2): −0.1
- Eif2ak2 1422005_at (Group G1, Modules 20) ([2]; sample x2): −0.4
- G3bp2 1421323_a_at (Group G1, Modules 20) ([2]; sample x2): −0.6
- Gm9706///Isg15 1431591_s_at (Group G1, Modules 20) ([2]; sample x2): −0.5
- H2-T10///H2-T22///H2-T9 1449875_s_at (Group G1, Modules 20) ([2]; sample x2): −0.3
- Ifih1 1426276_at (Group G1, Modules 20) ([2]; sample x2): −0.4
- Ifit1 1450783_at (Group G1, Modules 20) ([2]; sample x2): −0.5
- Ifit3 1449025_at (Group G1, Modules 20) ([2]; sample x2): −0.5
- Irf7 1417244_a_at (Group G1, Modules 20) ([2]; sample x2): −0.5
- Irgm1 1418825_at (Group G1, Modules 20) ([2]; sample x2): −0.5
- Mndal 1426906_at (Group G1, Modules 20) ([2]; sample x2): −0.4
- Pml 1448757_at (Group G1, Modules 20) ([2]; sample x2): −0.3
- Pml 1456103_at (Group G1, Modules 20) ([2]; sample x2): −0.4
- Rnf213 1455500_at (Group G1, Modules 20) ([2]; sample x2): −0.5
- Rsad2 1436058_at (Group G1, Modules 20) ([2]; sample x2): −0.5
- Shisa5 1423986_a_at (Group G1, Modules 20) ([2]; sample x2): −0.4
- Shisa5 1437503_a_at (Group G1, Modules 20) ([2]; sample x2): −0.3
- Stat1 1450033_a_at (Group G1, Modules 20) ([2]; sample x2): −0.5
- Stat1 1450034_at (Group G1, Modules 20) ([2]; sample x2): −0.5
- Tdrd7 1426716_at (Group G1, Modules 20) ([2]; sample x2): −0.3
- Tor1aip2 1418115_s_at (Group G1, Modules 20) ([2]; sample x2): −0.4
- Tor1aip2 1418116_at (Group G1, Modules 20) ([2]; sample x2): −0.3
- Tor1aip2 1435526_at (Group G1, Modules 20) ([2]; sample x2): −0.1
- Trim12a 1437432_a_at (Group G1, Modules 20) ([2]; sample x2): −0.6
- Uba7 1426970_a_at (Group G1, Modules 20) ([2]; sample x2): −0.2
- Adar 1425405_a_at (Group G1, Modules 20) ([2]; sample x3): −0.6
- Adar 1434268_at (Group G1, Modules 20) ([2]; sample x3): −0.3
- Ddx58 1436562_at (Group G1, Modules 20) ([2]; sample x3): −0.5
- Ddx58 1456890_at (Group G1, Modules 20) ([2]; sample x3): −0.4
- Eif2ak2 1422005_at (Group G1, Modules 20) ([2]; sample x3): −0.4
- G3bp2 1421323_a_at (Group G1, Modules 20) ([2]; sample x3): −0.5
- Gm9706///Isg15 1431591_s_at (Group G1, Modules 20) ([2]; sample x3): −0.5
- H2-T10///H2-T22///H2-T9 1449875_s_at (Group G1, Modules 20) ([2]; sample x3): −0.4
- Ifih1 1426276_at (Group G1, Modules 20) ([2]; sample x3): −0.4
- Ifit1 1450783_at (Group G1, Modules 20) ([2]; sample x3): −0.5
- Ifit3 1449025_at (Group G1, Modules 20) ([2]; sample x3): −0.5
- Irf7 1417244_a_at (Group G1, Modules 20) ([2]; sample x3): −0.5
- Irgm1 1418825_at (Group G1, Modules 20) ([2]; sample x3): −0.6
- Mndal 1426906_at (Group G1, Modules 20) ([2]; sample x3): −0.5
- Pml 1448757_at (Group G1, Modules 20) ([2]; sample x3): −0.4
- Pml 1456103_at (Group G1, Modules 20) ([2]; sample x3): −0.3
- Rnf213 1455500_at (Group G1, Modules 20) ([2]; sample x3): −0.5
- Rsad2 1436058_at (Group G1, Modules 20) ([2]; sample x3): −0.5
- Shisa5 1423986_a_at (Group G1, Modules 20) ([2]; sample x3): −0.3
- Shisa5 1437503_a_at (Group G1, Modules 20) ([2]; sample x3): −0.4
- Stat1 1450033_a_at (Group G1, Modules 20) ([2]; sample x3): −0.6
- Stat1 1450034_at (Group G1, Modules 20) ([2]; sample x3): −0.5
- Tdrd7 1426716_at (Group G1, Modules 20) ([2]; sample x3): −0.4
- Tor1aip2 1418115_s_at (Group G1, Modules 20) ([2]; sample x3): −0.6
- Tor1aip2 1418116_at (Group G1, Modules 20) ([2]; sample x3): −0.2
- Tor1aip2 1435526_at (Group G1, Modules 20) ([2]; sample x3): −0.5
- Trim12a 1437432_a_at (Group G1, Modules 20) ([2]; sample x3): −0.5
- Uba7 1426970_a_at (Group G1, Modules 20) ([2]; sample x3): −0.6
